Values after ≈ are worked out from the molar mass of the structure shown.
Assays:
Canis familiaris [1] = experiment: The mean arterial blood pressure drop after administration was determined; type: functional, Canis lupus familiaris
Canis familiaris [2] = species on record: Canis familiaris; experiment: The differential (dp/dt) maximal rise in blood pressure with respect to time was evaluated; type: functional, Canis lupus familiaris
Canis familiaris [3] = experiment: Tested for effective dose required to produce cardiotonic activity after intravenous administration in anesthetized dog model; type: functional; settings: Canis lupus familiaris
[4] = Solubility in 1 M HCl; type: physicochemical; settings: read-out: S
Canis familiaris [5] = experiment: Maximum increase in cardiac force at 75 ug/Kg was observed in an anesthetized dog model(iv); type: functional, Canis lupus familiaris
Canis familiaris [6] = experiment: The high peak activity was evaluated at a dose of 35 ug/kg intravenously in dog; type: functional, Canis lupus familiaris
[7] = Solubility in 1 M HCl; compound is insoluble; type: physicochemical; settings: buffer

SMILES	Decrease in blood pressure (Canis familiaris [1]) [%]	Change (Canis familiaris [2]) [%]	ED50 (Canis familiaris [3]) [mg/kg]	solubility [4] [µg/mL]	Increase (Canis familiaris [5]) [%]	Activity (Canis familiaris [6])	S [7]
CC1CC(=O)NN=C1c1ccc2c(c1)Oc1cn[nH]c1N2 (centres undefined)	21	119	0.015	300 (≈ 1060 µM)	256	–	–
CC1CC(=O)NN=C1c1ccc2c(c1)OCC(=O)N2 (centres undefined) [BEMORADAN]	–	–	0.0054	–	127	200	Insoluble
